Assay results as given in patent US11312719B2, “9-substituted amino triazolo quinazoline derivatives as adenosine receptor antagonists, pharmaceutical compositions and their use” (Merck Sharp & Dohme Corp., priority 2018, dated 2022).

Tests used:
[1] = molecular target: human A2a adenosine receptor (Homo sapiens (Human), UniProt P29274); test: A2a receptor affinity radioligand binding assay ([3H] SCH58261); details: membranes from HEK293 or CHO cells expressing human A2a receptor
Procedure: The A2a receptor affinity binding assay measured the amount of binding of a tritiated ligand with high affinity for the A2a adenosine receptor to membranes made from HEK293 or CHO cells recombinantly expressing the human A2a adenosine receptor, in the presence of varying concentrations of a compound of the invention.
Measurement of A2a Binding Affinity Using Radioligand Binding
148 μL (5 μg/mL) membranes (Perkin Elmer, Cat. No. RBHA2aM400UA) and 2 μL compounds of the invention to be tested (test compound) were transferred to individual wells of a 96-well polypropylene assay plate and incubated for 15 to 30 minutes at room temperature. [^3H] SCH58261 ((7-(2-phenylethyl)-5-amino-2-(2-furyl)-pyrazolo-[4,3-e]-1,2,4-triazolo[1,5-c]pyrimidine)) was diluted in assay buffer (50 mM Tris pH 7.4, 10 mM MgCl2, 0.005% Tween20) to a concentration of 4 nM and 50 μL transferred to each well of the assay plate. To define total and non-specific binding, wells containing 1% DMSO and 1 μM ZM241385 (Tocris Bioscience, Cat. No. 1036) respectively, were also included. The assay plate was incubated at room temperature for 60 minutes with agitation. Using a FilterMate Harvester® (Perkin Elmer), the contents of the assay plate were filtered through a UniFilter-96® PEI coated plate (Perkin Elmer Cat. No. 6005274 or 6005277). Filtering was achieved by aspirating the contents of the assay plate for 5 seconds, then washing and aspirating the contents three times with ice-cooled wash buffer (50 mM Tris-HCl pH 7.4, 150 mM NaCl) and allowing the vacuum manifold to dry the plate for 30 seconds. The filter plate was incubated for at least 1 hour at 55° C., and allowed to dry. The bottom of the filter plate was sealed with backing tape. 40 μL Ultima Gold™ (Perkin Elmer, Cat. No. 6013329) was added to each well of the filter plate and the top of the plate was sealed with TopSeal-A PLUS® clear plate seal (Perkin Elmer, Cat. No. 6050185). The plate was incubated for at least 20 minutes, and then the amount of radioactivity remaining in each well was determined using a TopCount® (Perkin Elmer) scintillation counter. After normalization to total and non-specific binding, the percent effect at each compound concentration was calculated. The plot of percent effect versus the log of compound concentration was analyzed electronically using a 4-parameter logistic fit based on the Levenberg-Marquardt algorithm to generate IC50 values.

[2] = molecular target: human A2b adenosine receptor (Homo sapiens (Human), UniProt P29275); test: A2b radioligand filtration binding assay; details: membranes from HEK293 cells expressing human A2b receptor
Chain of human A2b adenosine receptor (P29275 whole entry): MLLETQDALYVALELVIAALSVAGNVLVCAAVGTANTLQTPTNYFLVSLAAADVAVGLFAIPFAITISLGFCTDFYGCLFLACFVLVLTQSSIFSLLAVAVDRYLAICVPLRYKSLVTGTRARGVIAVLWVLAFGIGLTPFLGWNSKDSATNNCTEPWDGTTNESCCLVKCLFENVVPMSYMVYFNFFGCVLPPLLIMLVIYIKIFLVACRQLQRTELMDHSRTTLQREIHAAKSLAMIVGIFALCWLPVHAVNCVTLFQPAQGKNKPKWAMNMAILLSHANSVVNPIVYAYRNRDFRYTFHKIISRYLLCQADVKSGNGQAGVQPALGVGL
Procedure: Measurement of A2b Binding Affinity
The reported affinity of the compounds of the invention for the human A2b adenosine receptor was determined experimentally using a radioligand filtration binding assay. This assay measures the amount of binding of a tritiated proprietary A2b receptor antagonist, in the presence and absence of a compound of the invention, to membranes made from HEK293 cells recombinantly expressing the human A2b adenosine receptor (Perkin Elmer, Cat. No. ES-013-C).
148 μL (135 μg/mL) membranes and 2 μL test compounds were transferred to individual wells of a 96-well polypropylene assay plate and incubated for 15 to 30 minutes at room temperature with agitation. Tritiated radioligand was diluted to a concentration of 14 nM in assay buffer (phosphate buffered saline without Magnesium and Calcium, pH 7.4; GE Healthcare Life Sciences, Cat. No. SH30256.01) and then 50 μL of the solution were transferred to each well of the assay plate. To define total and non-specific binding, wells containing 1% DMSO and 20 μM N-ethylcarboxamidoadenosine (Tocris Bioscience, Cat. No. 1691) respectively, were also included. The wells of the assay plate were incubated at room temperature for 60 minutes with agitation, then filtered using a FilterMate Harvester® (Perkin Elmer) or similar equipment through a UniFilter-96® PEI coated plate (Perkin Elmer Cat. No. 6005274 or 6005277). Filtering was achieved by aspirating the contents of the assay plate for 5 seconds, then washing and aspirating the contents three times with ice-cooled wash buffer (assay buffer supplemented with 0.0025% Brij58) and allowing the vacuum manifold to dry the plate for 30 seconds. The filter plate was incubated for at least 1 hour at 55° C. and allowed to dry. The bottom of the filter plate was then sealed with backing tape. 40 μL Ultima Gold™ (Perkin Elmer, Cat. No. 6013329) was added to each well of the filter plate and the top of the plate was sealed with TopSeal-A PLUS® clear plate seal (Perkin Elmer, Cat. No. 6050185). The plates were then incubated for at least 20 minutes, and then the amount of radioactivity remaining in each well was determined using a TopCount® (Perkin Elmer) scintillation counter. After normalization to total and non-specific binding, the percent effect at each compound concentration was calculated. The plot of percent effect versus the log of compound concentration was analyzed electronically using a 4-parameter logistic fit based on the Levenberg-Marquardt algorithm to generate IC50 values.

Chain of human A2a adenosine receptor (P29274 whole entry): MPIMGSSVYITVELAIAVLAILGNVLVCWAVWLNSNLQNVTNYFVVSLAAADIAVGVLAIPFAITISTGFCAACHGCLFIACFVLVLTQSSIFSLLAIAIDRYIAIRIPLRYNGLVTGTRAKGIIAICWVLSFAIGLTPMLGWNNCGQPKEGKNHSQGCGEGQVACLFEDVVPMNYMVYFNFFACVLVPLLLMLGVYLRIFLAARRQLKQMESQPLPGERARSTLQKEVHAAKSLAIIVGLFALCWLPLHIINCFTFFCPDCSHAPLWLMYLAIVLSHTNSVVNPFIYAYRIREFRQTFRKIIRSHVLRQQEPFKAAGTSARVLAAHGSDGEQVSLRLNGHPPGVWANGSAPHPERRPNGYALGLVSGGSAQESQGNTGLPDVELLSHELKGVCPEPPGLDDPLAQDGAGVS

COc1cc(F)cc2c1nc(N)n1nc(C3CCCCN(c4cnn(CC(C)(C)O)c4)C3)nc21 (racemic) [Example 39, rac-1-(4-(3-(5-amino-9-fluoro-7-methoxy-[1,2,4]triazolo [1,5-c]quinazoln-2-yl)azepan-1-yl)-1H-pyrazol-1-yl)-2-methylpropan-2-ol]
IC50 [1]: 1.1 nM | IC50 [2]: 43.3 nM

COc1cc2nc(N)n3nc(C4CCCN(c5cnn(CC(C)(C)O)c5)C4=O)nc3c2cc1F (racemic) [Example 139, rac-3-(5-amino-9-fluoro-8-methoxy-[1,2,4]triazolo[1,5-c]quinazolin-2-yl)-1-(1-(2-hydroxy-2-methylpropyl)-1H-pyrazol-4-yl)piperidin-2-one]
IC50 [1]: 16.8 nM | IC50 [2]: 2820 nM

COc1cc2nc(N)n3nc([C@@H]4CCCN(c5cnn(C(C)C(C)(C)O)c5)C4)nc3c2cc1F (single isomer, unassigned) [Example 12, (S or R)-3-(4-((R)-3-(5-amino-9-fluoro-8-methoxy-[1,2,4]triazolo [1,5-c]quinazolin-2-yl)piperidin-1-yl)-1H-pyrazol-1-yl)-2-methylbutan-2-ol]
IC50 [1]: 1.7 nM | IC50 [2]: 75 nM

COc1cc2nc(N)n3nc([C@@H]4CCCN(c5cnn(C(C)C(C)(C)O)c5)C4)nc3c2cc1F (single isomer, unassigned) [Example 13, (R or S)-3-(4-((R)-3-(5-amino-9-fluoro-8-methoxy-[1,2,4]triazolo[1,5-c]quinazolin-2-yl)piperidin-l-yl)-1H-pyrazol-1-yl)-2-methylbutan-2-ol]
IC50 [1]: 0.7 nM | IC50 [2]: 72.6 nM

COc1cc2nc(N)n3nc(C4CCC(C)N(c5cnn(CC(C)(C)O)c5C)C4)nc3c2cc1F (single isomer, unassigned) [Example 41, 1-(4-((2S,5R or 2R,5S)-5-(5-amino-9-fluoro-8-methoxy-[1,2,4]triazolo[1,5-c]quinazolin-2-yl)-2-methylpiperidin-1-yl)-5-methyl-1H-pyrazol-1-yl)-2-methylpropan-2-ol]
IC50 [1]: 1.2 nM | IC50 [2]: 42.8 nM

COc1cc2nc(N)n3nc(C4CCC(C)N(c5cn(CC(C)(C)O)nc5C)C4)nc3c2cc1F (single isomer, unassigned) [Example 42, 1-(4-((2S,5R or 2R,5S)-5-(5-amino-9-fluoro-8-methoxy-[1,2,4]triazolo[1,5-c]quinazolin-2-yl)-2-methylpiperidin-1-yl)-3-methyl-1H-pyrazol-1-yl)-2-methylpropan-2-ol]
IC50 [1]: 4.3 nM | IC50 [2]: 476 nM

COc1cc2nc(N)n3nc(C4CCC(C)N(c5cnn(C(C)(C)C(C)(C)O)c5)C4)nc3c2cc1F (single isomer, unassigned) [Example 43, 3-(4-((2S,5R or 2R,5S)-5-(5-amino-9-fluoro-8-methoxy-[1,2,4]triazolo[1,5-c]quinazolin-2-yl)-2-methylpiperidin-1-yl)-1H-pyrazol-1-yl)-2,3-dimethylbutan-2-ol]
IC50 [1]: 0.7 nM | IC50 [2]: 3.4 nM

COc1cc2nc(N)n3nc(C4CCC(C)N(c5cnn(C6CCOCC6)c5)C4)nc3c2cc1F (single isomer, unassigned) [Example 44, 9-fluoro-8-methoxy-2-((3R,6S or 3S,6R)-6-methyl-1-(1-(tetrahydro-2H-pyran-4-yl)-1H-pyrazol-4-yl)piperidin-3-yl)-[1,2,4]triazolo[1,5-c]quinazolin-5-amine]
IC50 [1]: 1.3 nM | IC50 [2]: 20.4 nM

COc1cc2nc(N)n3nc(C4CCC(C)N(c5cnn(C6CCOCC6)c5C)C4)nc3c2cc1F (single isomer, unassigned) [Example 45, 9-fluoro-8-methoxy-2-((3R,6S or 3S,6R)-6-methyl-1-(5-methyl-1-(tetrahydro-2H-pyran-4-yl)-1H-pyrazol-4-yl)piperidin-3-yl)-[1,2,4]triazolo[1,5-c]quinazolin-5-amine]
IC50 [1]: 1.8 nM | IC50 [2]: 150 nM

COc1cc2nc(N)n3nc(C4CCC(C)N(c5cn(C6CCOCC6)nc5C)C4)nc3c2cc1F (single isomer, unassigned) [Example 46, 9-fluoro-8-methoxy-24(3R,6S or 3S,6R)-6-methyl-1-(3-methyl-1-(tetrahydro-2H-pyran-4-yl)-1H-pyrazol-4-yl)piperidin-3-yl) [1,2,4]triazolo[1,5-c]quinazolin-5-amine]
IC50 [1]: 0.6 nM | IC50 [2]: 86.4 nM

COc1cc2nc(N)n3nc(C4CCC(C)N(c5cnn(CC6(CF)COC6)c5)C4)nc3c2cc1F (single isomer, unassigned) [Example 47, 9-fluor-2-((3R,6S or 3S,6R)-1-(1((3-(fluoromethyl)oxetan-3-yl)methyl)-1H-pyrazol-4-yl)-6-methylpiperidin-3-yl)-8-methoxy-[1,2,4]triazolo[1,5-c]quinazolin-5-amine]
IC50 [1]: 8.2 nM | IC50 [2]: 284 nM

COc1cc2nc(N)n3nc([C@@H]4CC[C@H](C)N(c5cnn(C(C)C(C)(C)O)c5)C4)nc3c2cc1F (single isomer, unassigned) [Example 48, (R or S)-3-(4-((2S,5R or 2R,5S)-5-(5-amino-9-fluoro-8-methoxy-[1,2,4]triazolo[1,5-c]quinazolin-2-yl)-2-methylpiperidin-1-yl)-1H-pyrazol-1-yl)-2-methylbutan-2-ol]
IC50 [1]: 0.6 nM | IC50 [2]: 17.6 nM

COc1cc2nc(N)n3nc([C@@H]4CC[C@H](C)N(c5cnn([C@@H](C)C(C)(C)O)c5)C4)nc3c2cc1F (single isomer, unassigned) [Example 49, (S or R)-3-(4-((2S,5R or 2R,5S)-5-(5-amino-9-fluoro-8-methoxy-[1,2,4]triazolo[1,5-c]quinazolin-2-yl)-2-methylpiperidin-1-yl)-1H-pyrazol-1-yl)-2-methylbutan-2-ol]
IC50 [1]: 0.3 nM | IC50 [2]: 2.7 nM

COc1cc2nc(N)n3nc([C@H]4CC[C@@H](C)N(c5cn(CC6(O)CCC6)nc5C)C4)nc3c2cc1F (single isomer, unassigned) [Example 50, 1-((4-((2R,5S or 2S,5R)-5-(5-amino-9-fluoro-8-methoxy-[1,2,4]triazolo[1,5-c]quinazolin-2-yl)-2-methylpiperidin-1-yl)-3-methyl-1H-pyrazol-1-yl)methyl)cyclobutan-1-ol]
IC50 [1]: 18.3 nM | IC50 [2]: 1890 nM

COc1cc2nc(N)n3nc([C@H]4CC[C@@H](C)N(c5cnn(CC6(O)CCC6)c5C)C4)nc3c2cc1F (single isomer, unassigned) [Example 51, 1-((4-((2R,5S or 2S,5R)-5-(5-amino-9-fluoro-8-methoxy-[1,2,4]triazolo[1,5-c]quinazolin-2-yl)-2-methylpiperidin-1-yl)-5-methyl-1H-pyrazol-1-yl)methyl)cyclobutan-1-ol]
IC50 [1]: 21 nM | IC50 [2]: 2080 nM

COc1cc2nc(N)n3nc(C4CC(F)CN(c5cnn(CC(C)(C)O)c5)C4)nc3c2cc1F (single isomer, unassigned) [Example 55, 1-(4-((3R,5S or 3S,5R)-3-(5-amino-9-fluoro-8-methoxy-[1,2,4]triazolo[1,5-c]quinazolin-2-yl)-5-fluoropiperidin-1-yl)-1H-pyrazol-1-yl)-2-methylpropan-2-ol]
IC50 [1]: 10.6 nM | IC50 [2]: 500 nM
